Literature values, collected in patent US20170315129A1, “CANCER CELL DETECTION METHOD USING LIVING BODY-DERIVED CELLS OF BIOLOGICAL ORIGIN” (Hirosaki University, priority 2014, published 2017).

Tested on: mammalian cells
Settings: kinetics comparable to a radiolabeled D-glucose derivative; cited from earlier work

In the case of `O=[N+]([O-])c1ccc(N[C@H]2C(O)O[C@H](CO)[C@@H](O)[C@@H]2O)c2nonc12` (stereo partly shown) [2-NBDG], the “uptake into mammalian cells” value is listed as “taken up into mammalian cells through glucose transporters”.
